# Laboratory results published in ChEMBL document CHEMBL1201862, “PubChem BioAssay data set” (2004).
#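 96-well plates; 48 h exposure; 5 concentrations. Endpoints by linear interpolation between flanking doses. Not reached: highest tested concentration assigned. GI50 = concentration required for 50% inhibition of growth.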 The source made the active and inactive calls. Rule as the data show it: active = GI50 up to about 1.1 µM and inactive = higher.
# Assays:
# Assay in all cases: NCI-60 cell line screen, 48 h
# [1] = test system: K562
# [2] = test system: KM12
# [3] = test system: SN12C
# [4] = test system: TK-10
# [5] = test system: DLD-1
# [6] = test system: CAKI-1
# [7] = test system: OVCAR-4
# [8] = test system: LXFL 529
# [9] = test system: M14
# [10] = test system: HL-60
# [11] = test system: SK-OV-3
# [12] = test system: UACC-62
# [13] = test system: HOP-62
# [14] = test system: MOLT-4
# [15] = test system: SNB-75
# [16] = test system: LOX IMVI
# [17] = test system: OVCAR-5
# [18] = test system: NCI-H23
# [19] = test system: A498
# [20] = test system: NCI-H522
# [21] = test system: Malme-3M
# [22] = test system: SNB-78
# [23] = test system: U-251
# [24] = test system: SF-295
# [25] = test system: HOP-18
# [26] = test system: OVCAR-3
# [27] = test system: SR
# [28] = test system: RXF 631
# [29] = test system: COLO 205
# [30] = test system: NCI-H226
# [31] = test system: XF498
# [32] = test system: HCC 2998
# [33] = test system: UO-31
# [34] = test system: KM-20L2
# [35] = test system: OVCAR-8
# [36] = test system: SK-MEL-5
# [37] = test system: ACHN
# [38] = test system: SF-539
# [39] = test system: EKVX
# [40] = test system: M19-MEL
# [41] = test system: SNB-19
# [42] = test system: SK-MEL-2
# [43] = test system: HCT-15
# [44] = test system: NCI-H460
# [45] = test system: DMS-273
# [46] = test system: SF-268
# [47] = test system: IGROV-1
# [48] = test system: RPMI-8226
# [49] = test system: HCT-116
# [50] = test system: UACC-257
# [51] = test system: CCRF-CEM
# [52] = test system: 786-0
# [53] = test system: SW-620
# [54] = test system: A549
# [55] = test system: HT-29
# [56] = test system: SK-MEL-28
# [57] = test system: RXF 393
# [58] = test system: BT-549
# [59] = test system: DMS-114
# [60] = test system: MDA-N
# [61] = test system: MDA-MB-231
# [62] = test system: Hs-578T
# [63] = test system: MDA-MB-435
# [64] = test system: NCI/ADR-RES
# [65] = test system: DU-145
# [66] = test system: PC-3
# [67] = test system: T47D
smiles,measurement,setting,value
COC(=O)C(C(=O)C(=O)Nc1nnc(S)[nH]1)c1csc(N)n1 (stereo unspecified),GI50,[1],> 100 µM (inactive)
same,GI50,[2],> 100 µM (inactive)
same,GI50,[3],> 100 µM (inactive)
same,GI50,[4],> 100 µM (inactive)
same,GI50,[5],> 100 µM (inactive)
same,GI50,[6],> 100 µM (inactive)
same,GI50,[7],> 100 µM (inactive)
same,GI50,[8],> 100 µM (inactive)
same,GI50,[9],> 100 µM (inactive)
same,GI50,[10],> 100 µM (inactive)
same,GI50,[11],> 100 µM (inactive)
same,GI50,[12],> 100 µM (inactive)
same,GI50,[13],> 100 µM (inactive)
same,GI50,[14],> 100 µM (inactive)
same,GI50,[15],> 100 µM (inactive)
same,GI50,[16],> 100 µM (inactive)
same,GI50,[17],> 100 µM (inactive)
same,GI50,[18],> 100 µM (inactive)
same,GI50,[19],> 100 µM (inactive)
same,GI50,[20],> 100 µM (inactive)
same,GI50,[21],> 100 µM (inactive)
same,GI50,[22],> 100 µM (inactive)
same,GI50,[23],> 100 µM (inactive)
same,GI50,[24],> 100 µM (inactive)
same,GI50,[25],> 100 µM (inactive)
same,GI50,[26],> 100 µM (inactive)
same,GI50,[27],> 100 µM (inactive)
same,GI50,[28],> 100 µM (inactive)
same,GI50,[29],> 100 µM (inactive)
same,GI50,[30],> 100 µM (inactive)
same,GI50,[31],> 100 µM (inactive)
same,GI50,[32],> 100 µM (inactive)
same,GI50,[33],> 100 µM (inactive)
same,GI50,[34],> 100 µM (inactive)
same,GI50,[35],> 100 µM (inactive)
same,GI50,[36],> 100 µM (inactive)
same,GI50,[37],> 100 µM (inactive)
same,GI50,[38],> 100 µM (inactive)
same,GI50,[39],> 100 µM (inactive)
same,GI50,[40],> 100 µM (inactive)
same,GI50,[41],> 100 µM (inactive)
same,GI50,[42],> 100 µM (inactive)
same,GI50,[43],> 100 µM
same,GI50,[44],> 100 µM (inactive)
same,GI50,[45],> 100 µM (inactive)
same,GI50,[46],> 100 µM (inactive)
same,GI50,[47],> 100 µM (inactive)
same,GI50,[48],> 100 µM (inactive)
same,GI50,[49],> 100 µM (inactive)
same,GI50,[50],> 100 µM (inactive)
same,GI50,[51],> 100 µM (inactive)
same,GI50,[52],> 100 µM (inactive)
same,GI50,[53],> 100 µM (inactive)
same,GI50,[54],> 100 µM (inactive)
same,GI50,[55],> 100 µM (inactive)
same,GI50,[56],> 100 µM (inactive)
same,GI50,[57],> 100 µM (inactive)
O=c1[nH]c(=O)n([C@@H]2O[C@H](CO)[C@@H](O)[C@H]2O)cc1F [5-FLUOROURIDINE],GI50,[1],0.0212 µM (active)
same,GI50,[2],0.0671 µM (active)
same,GI50,[3],0.0603 µM (active)
same,GI50,[4],5.74 µM (inactive)
same,GI50,[5],0.0861 µM (active)
same,GI50,[58],0.459 µM (active)
same,GI50,[59],10.4 µM (inactive)
same,GI50,[6],0.0483 µM (active)
same,GI50,[7],0.521 µM (active)
same,GI50,[8],0.15 µM (active)
same,GI50,[9],0.222 µM (active)
same,GI50,[60],0.025 µM (active)
same,GI50,[10],0.0867 µM (active)
same,GI50,[11],5.66 µM (inactive)
same,GI50,[12],0.169 µM (active)
same,GI50,[61],1.63 µM (inactive)
same,GI50,[62],2.01 µM (inactive)
same,GI50,[13],0.171 µM (active)
same,GI50,[14],0.0861 µM (active)
same,GI50,[15],2.25 µM (inactive)
same,GI50,[16],0.0556 µM (active)
same,GI50,[17],0.718 µM (active)
same,GI50,[18],0.229 µM (active)
same,GI50,[19],0.308 µM (active)
same,GI50,[21],0.0678 µM (active)
same,GI50,[63],0.0333 µM (active)
same,GI50,[22],0.211 µM (active)
same,GI50,[23],0.0462 µM (active)
same,GI50,[24],0.145 µM (active)
same,GI50,[26],0.223 µM (active)
same,GI50,[27],0.0473 µM (active)
same,GI50,[28],1.05 µM (active)
same,GI50,[29],0.0787 µM (active)
same,GI50,[30],0.154 µM (active)
same,GI50,[31],1.92 µM (inactive)
same,GI50,[32],0.0311 µM (active)
same,GI50,[33],0.0792 µM (active)
same,GI50,[64],0.0792 µM (active)
same,GI50,[65],0.151 µM (active)
same,GI50,[34],0.594 µM (active)
same,GI50,[35],0.056 µM (active)
same,GI50,[66],0.164 µM (active)
same,GI50,[36],0.344 µM (active)
same,GI50,[37],0.0307 µM (active)
same,GI50,[38],0.0375 µM (active)
same,GI50,[39],37.2 µM (inactive)
same,GI50,[40],0.481 µM (active)
same,GI50,[41],0.0579 µM (active)
same,GI50,[67],0.114 µM (active)
same,GI50,[42],2.32 µM (inactive)
same,GI50,[43],0.0367 µM
same,GI50,[44],0.0159 µM (active)
same,GI50,[45],0.312 µM (active)
same,GI50,[46],0.0716 µM (active)
same,GI50,[47],0.0803 µM (active)
same,GI50,[48],0.126 µM (active)
same,GI50,[49],0.0167 µM (active)
same,GI50,[51],0.057 µM (active)
same,GI50,[52],0.0408 µM (active)
same,GI50,[53],0.0222 µM (active)
same,GI50,[54],0.0179 µM (active)
same,GI50,[55],0.0407 µM (active)
same,GI50,[56],0.805 µM (active)
same,GI50,[57],0.221 µM (active)
